# Results taken from article PMC6980389 (Chembiochem : a European journal of chemical biology, 2018).
# Read-outs that look alike come from different tables or passages of the source.
# Assays:
# Toledo cells = experiment: Growth of Toledo cells; type: cell-based; settings: 72 h; for IC50: read-out: IC50, growth inhibition of Toledo cells
# U937 leukemia cells [1] = experiment: U937 cell attachment at 60 h, alone or with 10 nM PMA; type: cell-based; settings: ligand alone
# U937 leukemia cells [2] = settings: proliferation and attachment assays; ref 12b-e; cited from earlier work
# mCherry PKCδ = mCherry PKCδ (Homo sapiens, UniProt Q05655); experiment: Translocation of mCherry-tagged PKCδ in LNCaP cells; type: cell-based; settings: 1 μM ligand
# PKCβII = PKCβII (Homo sapiens, UniProt P05771); experiment: Downregulation of PKCβII in U937 cells; type: cell-based; settings: 24 h
# PKCδ = PKCδ (Homo sapiens, UniProt Q05655); experiment: Downregulation of PKCδ in U937 cells; type: cell-based; settings: 24 h
# Sequence of PKCδ (Q05655 whole entry): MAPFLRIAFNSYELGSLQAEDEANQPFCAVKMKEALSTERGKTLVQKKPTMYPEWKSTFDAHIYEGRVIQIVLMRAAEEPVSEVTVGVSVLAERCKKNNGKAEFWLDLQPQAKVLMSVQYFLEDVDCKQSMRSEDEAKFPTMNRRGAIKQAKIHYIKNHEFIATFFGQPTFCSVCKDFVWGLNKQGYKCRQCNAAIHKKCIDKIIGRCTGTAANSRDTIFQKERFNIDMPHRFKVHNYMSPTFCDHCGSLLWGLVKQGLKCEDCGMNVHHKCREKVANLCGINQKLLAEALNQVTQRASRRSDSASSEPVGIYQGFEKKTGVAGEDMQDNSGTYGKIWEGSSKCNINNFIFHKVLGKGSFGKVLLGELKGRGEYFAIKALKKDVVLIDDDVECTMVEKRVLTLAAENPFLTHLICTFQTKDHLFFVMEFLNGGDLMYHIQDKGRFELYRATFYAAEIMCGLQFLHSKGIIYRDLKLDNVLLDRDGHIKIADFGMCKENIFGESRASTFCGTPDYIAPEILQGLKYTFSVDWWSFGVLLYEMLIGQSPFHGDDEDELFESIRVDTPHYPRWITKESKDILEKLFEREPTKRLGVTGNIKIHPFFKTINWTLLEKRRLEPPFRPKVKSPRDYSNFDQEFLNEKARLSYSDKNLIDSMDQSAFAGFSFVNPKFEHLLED
# Sequence of mCherry PKCδ (Q05655 whole entry): as above
# Sequence of PKCβII (P05771 1-673 isoform P05771-2): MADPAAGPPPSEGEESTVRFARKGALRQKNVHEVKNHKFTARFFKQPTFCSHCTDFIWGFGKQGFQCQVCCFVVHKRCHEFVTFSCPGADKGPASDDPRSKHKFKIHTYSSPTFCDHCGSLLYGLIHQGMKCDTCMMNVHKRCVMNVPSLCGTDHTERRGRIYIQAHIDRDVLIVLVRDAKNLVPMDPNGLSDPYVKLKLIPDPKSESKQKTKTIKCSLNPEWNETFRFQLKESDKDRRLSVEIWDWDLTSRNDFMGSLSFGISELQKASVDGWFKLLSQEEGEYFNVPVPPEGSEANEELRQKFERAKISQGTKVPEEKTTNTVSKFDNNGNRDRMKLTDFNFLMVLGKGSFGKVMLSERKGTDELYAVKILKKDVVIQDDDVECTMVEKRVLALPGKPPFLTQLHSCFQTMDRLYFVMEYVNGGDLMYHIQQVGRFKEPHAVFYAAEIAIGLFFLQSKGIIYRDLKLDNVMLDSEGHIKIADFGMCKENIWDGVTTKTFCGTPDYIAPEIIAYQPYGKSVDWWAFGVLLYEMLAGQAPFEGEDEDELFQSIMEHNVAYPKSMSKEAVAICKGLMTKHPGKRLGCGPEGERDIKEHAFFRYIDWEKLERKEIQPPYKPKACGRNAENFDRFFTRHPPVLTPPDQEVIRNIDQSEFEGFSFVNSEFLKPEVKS
SMILES,Effect on Toledo cell growth (Toledo cells),"IC50 (Toledo cells; Homo sapiens, Toledo) [nM]",Effect on attachment of U937 cells (U937 leukemia cells [1]),IC50 (Toledo cells) [nM],Pattern of biological activity in U937 cells (PMA-like or bryostatin-like) (U937 leukemia cells [2]),Translocation of PKCδ (mCherry PKCδ),Downregulation of PKCβII (PKCβII),Downregulation of PKCδ (PKCδ)
CCC/C=C/C=C/C(=O)O[C@H]1/C(=C/C(=O)OC)C[C@H]2C[C@H]([C@@H](C)O)OC(=O)C[C@H](O)C[C@@H]3C[C@H](OC(C)=O)C(C)(C)[C@](O)(C[C@@H]4C/C(=C/C(=O)OC)C[C@H](/C=C/C(C)(C)[C@]1(O)O2)O4)O3 [bryostatin 1],inhibited Toledo cell growth,0.091 ± 0.026,did not inhibit proliferation (Figure 1) or induce attachment,,,,,
C=C1C[C@H]2CC3(O)O[C@H](C[C@@H](O)CC(=O)O[C@@H]([C@@H](C)O)C[C@@H]4C/C(=C\C(=O)OC)[C@H](OC(=O)/C=C/C=C/CCC)[C@@](O)(O4)C(C)(C)/C=C/[C@@H](C1)O2)C[C@H](OC(C)=O)C3(C)C [Merle 28],,,did not inhibit proliferation (Figure 1) or induce attachment,0.111 ± 0.009,bryostatin-like,,,
C=C1C[C@H]2C[C@H]3C[C@@H](OC(C)=O)C[C@@H](C[C@@H](O)CC(=O)O[C@@H]([C@@H](C)O)C[C@@H]4C/C(=C\C(=O)OC)[C@H](OC(=O)CCCCCCC)[C@@](O)(O4)C(C)(C)/C=C/[C@@H](C1)O2)O3 [Merle 27],,,,,PMA-like,,,
"CCCCCCCCCCCCCC(=O)O[C@@H]1[C@@H](C)[C@@]2(O)[C@@H](C=C(CO)C[C@]3(O)C(=O)C(C)=C[C@@H]23)[C@@H]2C(C)(C)[C@]12OC(C)=O [PMA, phorbol 12-myristate 13-acetate]",inhibited Toledo cell growth,0.57 ± 0.27,induced attachment,,,"characteristic translocation of PKCδ to the plasma and nuclear membranes, as well as to internal membranes",downregulated PKCβII at 24 h,
C=C1C[C@@H]2C[C@@H]3CC(=C)C[C@H](/C=C/C(C)(C)[C@]4(O)O[C@@H](C/C(=C\C(=O)OC)[C@@H]4OC(=O)/C=C/C=C/CCC)C[C@H]([C@@H](C)O)OC(=O)C[C@H](O)C[C@H](C1)O2)O3 [Merle 23],,,induced attachment,0.33 ± 0.11,largely PMA-like,,,less potent than Merle 45 for downregulation but again showed no protection of PKCδ downregulation at high doses
